Data published in patent US6340784B1, “Method for selective increase of the anticarcinogenic glucosinolates in Brassica sp” (Plant Bioscience Limited, priority 1998, dated 2002).
Like-named read-outs stand apart in the source and are kept apart here. Marks after values point to notes of the source that are not given here.

Columns and labels:
[1] = test system: QR in murine hepatoma Hepa 1c1c7 cells; test: Induction of QR (quinone reductase, phase II enzyme) activity in Hepa 1c1c7 cells; type: cell-based; design: induction of QR (fold): unit of the concentration uncertain; details: for CD: pure compound
Protocol: Extracts from the freeze-dried material were assessed for their induction activity in murine hepatoma Hepa 1c1c7 cells. Approximately 0.1 g of milled freeze-dried material was moistened by addition of water (2 ml), homogenised and left at room temperature for 1 hr with occasional mixing. Hot 70% (v/v) methanol (3 ml) was added and mixed thoroughly prior to incubation for 15 min at +70° C. The homogenates were cooled to room temperature and centrifuged for 5 min at 3000 r.p.m. Supernatants were removed and the volume decreased in a vacuum centrifuge to approximately one fifth of the initial volume. The resulting concentrates were filtered through sterile non-pyrogenic filters ([…]) and stored at −70° C. prior to testing. The concentrations of each extract were expressed as dry weight of original material to each ml of culture medium.
Induction was measured according to published methods (Tawfiq, N., Heaney, R. K., Plumb, J. A., Fenwick, G. R., Musk, S. R. R., & Williamson, G. (1995) Carcinogenesis 16, 1191-1194., Prochaska, H. J., & Santamaria, A. B. (1988) Anal. Biochem. 169, 328-336., Williamson, G., Plumb, G. W., Uda, Y., Price, K. R., & Rhodes, M. J. C. (1996) Carcinogenesis 17, 2385-2387.) with the following modifications. Each sample was analysed at eight concentrations using four replicates for each concentration. b-Napthoflavone was used as a positive control at a concentration of 0.2 mM. […] Each cultivar/hybrid was extracted on three occasions and analysed separately.

[2] = test system: QR in murine hepatoma Hepa 1c1c7 cells; details: literature value, See Zhang (2), cited from earlier work
[3] = assuming 100% conversion of glucosinolate to isothiocyanate, from plant extracts

Row | Compound | induction of QR (fold) ([1]; at 1.6 (unit uncertain)) | ability to induce QR activity (in words) ([1]; extracts or compound, cultivar extracts 0.001 mg/ml to 0.125 mg/ml) | CD [1] | apparent CD value ([1]; synthetic compound, positive control) | CD value for synthetic isothiocyanate [2] | CD value for synthetic isothiocyanate ([2]; listed as 4-methylsulfinylbutyl) | apparent CD value [1, 3] | induction of QR (fold) ([1]; positive control at 0.2 (unit uncertain))
1 | C[S+]([O-])CCCCN=C=S (stereo not drawn) [Synthetic sulforaphane, 4-methylsulfinylbutyl isothiocyanate] | three-fold | potent inducer | 0.4 mM | 0.0003 mM | 0.4-0.8§ μM | 0.4 to 0.8 µM |  | 
2 | CSCCCN=C=S [3-methylthiopropyl isothiocyanate] |  |  |  |  | 3.5 µM |  | 1.6 mM | 
3 | C[S+]([O-])CCCN=C=S (stereo not drawn) [3-methylsulfinylpropyl isothiocyanate] |  |  |  |  | 2.4 µM |  | 0.5 mM | 
4 | O=c1cc(-c2ccccc2)oc2ccc3ccccc3c12 [b-Napthoflavone] |  |  | 0.02 mM |  |  |  |  | three-fold
